From ChEMBL document CHEMBL5131544, “Two-Photon Photodynamic Therapy Targeting Cancers with Low Carboxylesterase 2 Activity Guided by Ratiometric Fluorescence” (J Med Chem, 2022)
Active and inactive are the calls of the source. The rule behind the calls is not given here.

Assays:
[1] = Dark toxicity against human PANC-1 cells assessed as reduction in cell viability after 3 hrs by MTT assay; assay type: cell-based
PANC-1 [2] = test: Phototoxicity against human PANC-1 cells assessed as reduction in cell viability after 3 hrs followed by compound washout and 415 nm light irradiation measured after overnight incubation by MTT assay; assay type: functional
[3] = Dark toxicity against human A549 cells assessed as reduction in cell viability after 3 hrs by MTT assay; assay type: cell-based
PANC-1 [4] = test: Induction of cell death in human PANC-1 cells assessed as […] cleavage at 20 uM after 6 hrs under 900 nm light irradiation by two-photon based Western blotting analysis; assay type: functional
PANC-1 [5] = test: Antitumor activity against human PANC-1 tumor spheroids at 20 uM preincubated for 3 hrs followed by compound washout and 900 nm light irradiation by two-photon baseReadyProbes blue/green imaging analysis; assay type: functional, cell-based
[6] = Drug uptake in human PANC-1 cells at 0.5 to 20 uM after 3 hrs under 900 nm light irradiation by two-photon based fluorescence imaging assay; assay type: ADME, cell-based; details: panc-1, 3 h, dose 0.5-20 µM
PANC-1 [7] = test: Induction of cell death in human PANC-1 cells assessed as reduction in cell viability preincubated for 2 hrs followed by compound washout and immediate 900 nm light irradiation and measured 1 hr post light irradiation by two-photon based ReadyProbes blue/green imaging analysis; assay type: functional
[8] = Induction of ROS production in DBPS at pH 7.4 assessed as DCF production at 20 uM upon 415 nm light irradiation by fluorescence spectra analysis; assay type: functional
PANC-1 [9] = test: Induction of cell death in human PANC-1 cells assessed as reduction in cell viability preincubated for 3 hrs followed by compound washout and immediate 900 nm light irradiation and measured 1 hr post light irradiation by two-photon based MTT assay; assay type: functional
A549 = test: Phototoxicity against human A549 cells assessed as reduction in cell viability after 3 hrs followed by compound washout and 415 nm light irradiation measured after overnight incubation by MTT assay; assay type: functional
MCF7 [10] = test: Induction of ROS production in human MCF7 cells at 20 uM incubated for 3 hrs under 415 nm light irradiation by DCFH-DA staining based fluorescence microscopic analysis; assay type: functional, cell-based
PANC-1 [11] = test: Induction of apoptosis in human PANC-1 cells assessed as caspase 3 cleavage at 20 uM preincubated for 3 hrs followed by compound washout and 415 nm light irradiation for 10 mins and measured after 20 to 1440 mins post irradiation by Western blot analysis; assay type: functional, cell-based
PANC-1 [12] = test: Induction of ROS production in human PANC-1 cells at 20 uM preincubated for 3 hrs followed by compound washout and 900 nm light irradiation by DCFH-DA staining based two-photon fluorescence microscopy analysis; assay type: functional, cell-based
[13] = Dark toxicity against human MCF7 cells assessed as reduction in cell viability after 3 hrs by MTT assay; assay type: cell-based
PANC-1 [14] = test: Induction of apoptosis in human PANC-1 cells at 20 uM preincubated for 3 hrs followed by compound washout and 415 nm light irradiation for 10 mins and measured after 4 to 24 hrs post irradiation by Annexin V-FITC staining based assay; assay type: functional, cell-based
PANC-1 [15] = test: Induction of apoptosis in human PANC-1 cells at 20 uM preincubated for 3 hrs followed by compound washout and 415 nm light irradiation for 10 mins and measured after 1 hr post irradiation by Annexin V-FITC staining based assay; assay type: functional, cell-based
PANC-1 [16] = test: Induction of apoptosis in human PANC-1 cells at 20 uM preincubated for 3 hrs followed by compound washout and 415 nm light irradiation for 10 mins and measured after 20 mins post irradiation by Annexin V-FITC staining based assay; assay type: functional, cell-based
PANC-1 [17] = test: Induction of apoptosis in human PANC-1 cells assessed as necrosis at 20 uM preincubated for 3 hrs followed by compound washout and 415 nm light irradiation for 10 mins and measured after 24 hrs post irradiation by Hoeschst-33342/PI staining based assay; assay type: functional, cell-based
[18] = Induction of singlet oxygen production assessed as singlet oxygen quantum yield at 20 uM upon 415 nm light irradiation by ABDA assay; assay type: functional
HepG2 = test: Phototoxicity against human HepG2 cells assessed as reduction in cell viability after 3 hrs followed by compound washout and 415 nm light irradiation measured after overnight incubation by MTT assay; assay type: functional; details: HepG2, light or radiation study
[19] = Dark toxicity against human HepG2 cells assessed as reduction in cell viability after 3 hrs by MTT assay; assay type: cell-based
PANC-1 [20] = test: Induction of cell morphological changes in human PANC-1 cells at 20 uM preincubated for 2 hrs followed by compound washout and 900 nm light irradiation measured after 1 hr post irradiation by two-photon based bright field imaging analysis; assay type: functional
PANC-1 [21] = test: Induction of apoptosis in human PANC-1 cells assessed as shrinkage of cells at 20 uM preincubated for 3 hrs followed by compound washout and 415 nm light irradiation for 10 mins and measured after 24 hrs post irradiation by Hoeschst-33342/PI staining based assay; assay type: functional, cell-based
PANC-1 [22] = test: Induction of apoptosis in human PANC-1 cells assessed as membrane decomposition at 20 uM preincubated for 3 hrs followed by compound washout and 415 nm light irradiation for 10 mins and measured after 24 hrs post irradiation by Hoeschst-33342/PI staining based assay; assay type: functional, cell-based
MCF7 [23] = test: Phototoxicity against human MCF7 cells assessed as reduction in cell viability after 3 hrs followed by compound washout and 415 nm light irradiation measured after overnight incubation by MTT assay; assay type: functional
PANC-1 [24] = test: Induction of ROS production in human PANC-1 cells at 20 uM incubated for 3 hrs under 415 nm light irradiation by DCFH-DA staining based fluorescence microscopic analysis; assay type: functional, cell-based
[25] = PANC-1, light or radiation study

With `O=C(Nc1ccc2c3c(cccc13)C(=O)C=C2)c1ccccc1` the CC50 at 3 h [1] was > 32 µM, the Activity (PANC-1 [2]; DDE = dose-dependent effect) was “Dde” and the CC50 (PANC-1 [2]; [25]) was 1.4 µM. The CC50 at 3 h [3] was > 32 µM, the Activity (PANC-1 [4]) was “Active” and the Activity (PANC-1 [5]) was “Active”. For the same compound, the Drug uptake [6] was “Active”, the Activity (PANC-1 [7]; DDE = dose-dependent effect) was “Dde” and the CC50 (PANC-1 [7]; [25]) was 0.647 µM. The Activity [8] was “Active”, the Activity (PANC-1 [9]; DDE = dose-dependent effect) was “Dde” and the CC50 (PANC-1 [9]; [25]) was 0.647 µM. The CC50 (A549; A549, light or radiation study) was 4.4 µM, the Activity (A549; DDE = dose-dependent effect) was “Dde” and the Activity (MCF7 [10]) was “Active”. For the same compound, the Activity (PANC-1 [11]) was “Active”, the Activity (PANC-1 [12]) was “Active” and the CC50 at 3 h [13] was > 32 µM. For the same compound, the Activity (PANC-1 [14]) was “Active”, the Activity (PANC-1 [15]) was “Active” and the Activity (PANC-1 [16]) was “Active”. The Activity (PANC-1 [17]) was “Active”, the Activity [18] was 0.18 and the CC50 (HepG2) was > 32 µM. The CC50 at 3 h [19] was > 32 µM, the Activity (PANC-1 [20]) was “Active” and the Activity (PANC-1 [21]) was “Active”. The Activity (PANC-1 [22]) was “Active”, the Activity (MCF7 [23]; DDE = dose-dependent effect) was “Dde” and the CC50 (MCF7 [23]; MCF7, light or radiation study) was 1.6 µM. The Activity (PANC-1 [24]) was “Active”.
